ChEMBL document CHEMBL3044895, “Insecticidal and Antiacetyicholinesterase Activities of Isobutylthioaryl Methanesulfonates” (J Pestic Sci, 1991)

What was measured:
[1] = Lipophilicity, log K of the compound; assay type: physicochemical; settings: octanol/water
Nephotettix cincticeps [2] = test: Insecticidal activity against drug-resistant Nephotettix cincticeps Izumi (green rice leafhopper) assessed as mortality […] after 2 days by foliar spraying method; assay type: functional; settings: 48 h
Nephotettix cincticeps [3] = test: Insecticidal activity against drug-susceptible Nephotettix cincticeps Ageo (green rice leafhopper) assessed as mortality […] after 2 days by foliar spraying method; assay type: functional; settings: 48 h
Tetranychus urticae = test: Acaricidal activity against Tetranychus urticae (two-spotted spider mite) assessed as mortality at 200 ppm after 2 days by leaf dipping method; assay type: functional; settings: foliar, 48 h
[4] = Drug degradation in sorensen buffer assessed as hydrolysis at 3 x 10^-5 M at pH 7.4 after 24 hr; assay type: physicochemical; settings: read-out: Drug degradation
Culex pipiens = test: Insecticidal activity against Culex pipiens assessed as mortality at 200 ppm after 2 days by immersion method; assay type: functional; settings: 48 h
Plutella xylostella = test: Insecticidal activity against Plutella xylostella (diamondback moth) assessed as mortality at 200 ppm after 2 days by foliar spraying method; assay type: functional; settings: 48 h
Nilaparvata lugens [5] = test: Insecticidal activity against Nilaparvata lugens (brown planthopper) assessed as mortality at 200 ppm after 6 days by foliar spraying method; assay type: functional; settings: 144 h
Nilaparvata lugens [6] = test: Insecticidal activity against Nilaparvata lugens (brown planthopper) assessed as mortality at 200 ppm after 2 days by foliar spraying method; assay type: functional; settings: 48 h
Nephotettix cincticeps [7] = test: Insecticidal activity against Nephotettix cincticeps Izumi (green rice leafhopper) assessed as mortality at 200 ppm after 6 days by foliar spraying method; assay type: functional; settings: 144 h
Nephotettix cincticeps [8] = test: Insecticidal activity against Nephotettix cincticeps Izumi (green rice leafhopper) assessed as mortality at 200 ppm after 2 days by foliar spraying method; assay type: functional; settings: 48 h
Musca domestica = test: Insecticidal activity against Musca domestica (house fly) NAIDM; assay type: functional
Nephotettix cincticeps [9] = test: Insecticidal activity against drug-susceptible Nephotettix cincticeps Ageo (green rice leafhopper) assessed as mortality after 2 days by foliar spraying method; assay type: functional; settings: 48 h
Acetylcholinesterase [10] = target: T1, Acetylcholinesterase (Bos taurus, UniProt P23795); test: Inhibition of Bos taurus (bovine) erythrocytes acetylcholinesterase; settings: read-out: I50
T1 sequence (P23795 whole entry): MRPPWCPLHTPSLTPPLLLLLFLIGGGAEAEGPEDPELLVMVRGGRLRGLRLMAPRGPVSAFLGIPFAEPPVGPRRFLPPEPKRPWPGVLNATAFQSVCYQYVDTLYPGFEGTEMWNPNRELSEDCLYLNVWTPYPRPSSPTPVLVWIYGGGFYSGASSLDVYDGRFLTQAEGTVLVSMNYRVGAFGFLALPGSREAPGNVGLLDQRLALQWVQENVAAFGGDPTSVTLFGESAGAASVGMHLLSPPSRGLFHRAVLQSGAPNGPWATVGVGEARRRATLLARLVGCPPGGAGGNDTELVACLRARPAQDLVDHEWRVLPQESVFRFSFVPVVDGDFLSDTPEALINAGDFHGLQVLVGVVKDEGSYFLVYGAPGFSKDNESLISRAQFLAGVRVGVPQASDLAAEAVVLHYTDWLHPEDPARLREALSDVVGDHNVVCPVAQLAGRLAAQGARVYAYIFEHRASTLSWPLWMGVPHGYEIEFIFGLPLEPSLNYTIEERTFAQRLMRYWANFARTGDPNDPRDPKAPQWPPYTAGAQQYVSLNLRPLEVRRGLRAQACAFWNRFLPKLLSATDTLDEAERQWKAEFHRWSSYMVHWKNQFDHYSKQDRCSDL

Acetylcholinesterase [11] = target: Acetylcholinesterase (Musca domestica, UniProt Q7YWJ9); test: Inhibition of Musca domestica (house fly) NAIDM head acetylcholinesterase; settings: read-out: I50
[12] = target: Ace-orthologous acetylcholinesterase (Nephotettix cincticeps, UniProt Q9NJH6); test: Inhibition of drug-susceptible Nephotettix cincticeps Ageo (green rice leafhopper) acetylcholinesterase; settings: read-out: I50
Ace-orthologous acetylcholinesterase, sequence (Q9NJH6 whole entry): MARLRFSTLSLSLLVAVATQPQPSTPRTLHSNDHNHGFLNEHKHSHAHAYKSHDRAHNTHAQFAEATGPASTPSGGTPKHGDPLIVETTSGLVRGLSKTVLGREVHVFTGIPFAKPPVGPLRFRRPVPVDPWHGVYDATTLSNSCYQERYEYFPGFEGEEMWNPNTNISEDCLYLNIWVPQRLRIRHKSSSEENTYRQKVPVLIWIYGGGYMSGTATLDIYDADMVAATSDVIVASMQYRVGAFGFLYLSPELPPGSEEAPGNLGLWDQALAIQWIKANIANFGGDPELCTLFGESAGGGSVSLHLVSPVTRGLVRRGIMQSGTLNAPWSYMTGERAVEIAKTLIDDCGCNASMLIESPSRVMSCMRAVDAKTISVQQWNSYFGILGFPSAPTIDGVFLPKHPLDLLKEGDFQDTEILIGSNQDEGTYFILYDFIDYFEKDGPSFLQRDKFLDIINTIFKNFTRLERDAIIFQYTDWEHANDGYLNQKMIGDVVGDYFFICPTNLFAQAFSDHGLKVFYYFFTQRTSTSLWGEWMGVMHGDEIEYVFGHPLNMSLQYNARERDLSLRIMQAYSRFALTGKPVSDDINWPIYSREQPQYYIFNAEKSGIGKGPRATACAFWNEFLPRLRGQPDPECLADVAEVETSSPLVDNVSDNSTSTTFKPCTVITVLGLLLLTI

Acetylcholinesterase (Musca domestica, UniProt Q7YWJ9), sequence (Q7YWJ9 whole entry): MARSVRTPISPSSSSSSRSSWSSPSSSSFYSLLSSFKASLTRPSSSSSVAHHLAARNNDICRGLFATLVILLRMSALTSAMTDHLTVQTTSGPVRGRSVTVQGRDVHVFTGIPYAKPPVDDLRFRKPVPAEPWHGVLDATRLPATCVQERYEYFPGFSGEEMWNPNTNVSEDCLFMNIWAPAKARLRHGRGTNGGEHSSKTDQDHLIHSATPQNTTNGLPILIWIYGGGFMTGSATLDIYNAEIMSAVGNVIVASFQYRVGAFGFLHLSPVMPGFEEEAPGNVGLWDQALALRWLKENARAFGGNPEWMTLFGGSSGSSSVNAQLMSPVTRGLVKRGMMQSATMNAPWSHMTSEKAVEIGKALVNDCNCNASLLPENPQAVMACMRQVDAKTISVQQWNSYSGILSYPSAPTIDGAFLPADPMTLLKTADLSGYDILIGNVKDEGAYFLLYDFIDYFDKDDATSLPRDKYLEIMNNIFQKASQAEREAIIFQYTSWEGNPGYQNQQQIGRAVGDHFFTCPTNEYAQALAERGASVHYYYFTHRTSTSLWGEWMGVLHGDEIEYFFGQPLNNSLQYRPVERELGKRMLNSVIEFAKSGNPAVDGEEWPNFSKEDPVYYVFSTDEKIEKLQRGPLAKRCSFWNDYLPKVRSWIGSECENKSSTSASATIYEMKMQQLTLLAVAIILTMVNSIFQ

Compound	log K [1]	LD50 (Nephotettix cincticeps [2]) [mg/kg]	LD50 (Nephotettix cincticeps [3]) [mg/kg]	mortality at 200 ppm (Tetranychus urticae) [%]	degraded at 24 h, 30 µM [4] [%]	mortality at 200 ppm (Culex pipiens) [%]	mortality at 200 ppm (Plutella xylostella) [%]	mortality at 200 ppm (Nilaparvata lugens [5]) [%]	mortality at 200 ppm (Nilaparvata lugens [6]) [%]	mortality at 200 ppm (Nephotettix cincticeps [7]) [%]	mortality at 200 ppm (Nephotettix cincticeps [8]) [%]	LD50 (Musca domestica) [µg]	LD50 (Nephotettix cincticeps [9]) [mg/kg]	IC50 (Acetylcholinesterase [10]) [µM]	IC50 (Acetylcholinesterase [11]) [µM]	IC50 [12] [µM]
CC(C)CSc1cc(OS(C)(=O)=O)ccn1	0.379	66.4	5.4	< 10	5.9	100	70	100	70	70	30					
CC(C)CSc1nccc(OS(C)(=O)=O)n1	0.18	> 100	> 100	< 10	88.8	0	0	20	20	30	20					
CC(C)CSc1nc(OS(C)(=O)=O)cs1	0.316	11.1	8.2	< 10	9.8	100	0		100		100	3.9	14.9	31	2200	58
CC(C)CSc1nc(OS(C)(=O)=O)cc2ccccc12				< 10		40	0	60	0	60	30					
CC(C)CS(=O)(=O)c1nc(OS(C)(=O)=O)cs1												>100	0.52	1.4	0.00098	0.0019
CC(C)CS(=O)(=O)c1cccc(OS(C)(=O)=O)n1												16	1.15	0.9	0.15	0.0057
CC(C)C[S+]([O-])c1cccc(OS(C)(=O)=O)c1 (stereo unspecified) [3-(ISOBUTYLSULFINYL)PHENYL METHANESULFONATE]												1.46	3.18	0.56	12	0.002
CC(C)CS(=O)(=O)c1cccc(OS(C)(=O)=O)c1 [3-(ISOBUTYLSULFONYL)PHENYL METHANESULFONATE]												>100	13	1	0.37	0.046
CC(C)CSc1cc2ccccc2c(OS(C)(=O)=O)n1 [3-(ISOBUTYLTHIO)ISOQUINOLIN-1-YL METHANESULFONATE]				< 10		50	0	10	0	80	20					
CC(C)CSc1cccc(OS(C)(=O)=O)c1 [3-(ISOBUTYLTHIO)PHENYL METHANESULFONATE]	0.541	26.1	10.8	< 10	2.6	100	0		100		100					
CC(C)CSc1cccnc1OS(C)(=O)=O [3-(ISOBUTYLTHIO)PYRIDIN-2-YL METHANESULFONATE]				< 10		30	0	90	50	100	40					
CC(C)CS(=O)(=O)c1ccnc(OS(C)(=O)=O)c1 [4-(ISOBUTYLSULFONYL)PYRIDIN-2-YL METHANESULFONATE]												0.33	0.72	0.8	1.9	0.026
CC(C)CSc1ccnc(OS(C)(=O)=O)c1 [4-(ISOBUTYLTHIO)PYRIDIN-2-YL METHANESULFONATE]	0.324	2.8	2.3	< 10	4.5	100	0		100		100					
CC(C)CSc1nnc(OS(C)(=O)=O)s1 [5-(ISOBUTYLTHIO)-1,3,4-THIADIAZOL-2-YL METHANESULFONATE]				< 10		0	70	20	0	0	0					
CC(C)CSc1ccc(OS(C)(=O)=O)nc1 [5-(ISOBUTYLTHIO)PYRIDIN-2-YL METHANESULFONATE]				< 10		10	0		100	10	0					
CC(C)CSc1cncc(OS(C)(=O)=O)c1 [5-(ISOBUTYLTHIO)PYRIDIN-3-YL METHANESULFONATE]	0.258	3.7	1.9	< 10	3.8	100	0		100		100					
CC(C)CSc1cncc(OS(C)(=O)=O)n1 [6-(ISOBUTYLTHIO)PYRAZIN-2-YL METHANESULFONATE]	0.32	40.1	4.6	< 10	36.6	100	0		100	70	50					
CC(C)CSc1ccc(OS(C)(=O)=O)nn1 [6-(ISOBUTYLTHIO)PYRIDAZIN-3-YL METHANESULFONATE]				< 10		0	0	0	0	0	0					
CC(C)CSc1cccc(OS(C)(=O)=O)n1 [6-(ISOBUTYLTHIO)PYRIDIN-2-YL METHANESULFONATE]	0.4	2.9	1.8	72	1.8	100	0		100		100	1.11	1.06	2000	1300	2000
CC(C)CSc1cc(OS(C)(=O)=O)ncn1 [6-(ISOBUTYLTHIO)PYRIMIDIN-4-YL METHANESULFONATE]	0.391	> 100	> 100	< 10	100	0	0	100	80	0	0					
CNC(=O)Oc1cccc2ccccc12 [CARBARIL]															0.2	0.029
CCC(C)c1ccccc1OC(=O)NC (stereo unspecified) [FENOBUCARB]												1.44	11.8	12	1.4	0.18
